Assay results taken from the supplement of paper PMC4932681.

What was measured:
[1] = tested on: T-47D Tam2; test: drug sensitivity score (DSS) (DSS (dimensionless)); higher = more sensitive; extreme values may be limits of the assay; settings: 4-OH-tamoxifen in medium 1 µM; 72 h
Description: (§1)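 FIMM FO2B library drugs were tested at 5 concentrations (10,000-fold range) for 72 h, with CellTiter-Glo viability normalised to DMSO and benzethonium chloride controls. The Drug Sensitivity Score (DSS) is computed from the fitted logistic dose-response curve (area-based; 0 = inactive). Resistant lines and the 'in 1µM tamoxifen' arms were tested in 1 µM 4-OH-tamoxifen.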

[2] = tested on: ZR-75-1 Tam2; test: as above; settings: 4-OH-tamoxifen in medium 1 µM; 72 h
Description: as §1

[3] = tested on: MCF-7 Tam1; test: as above; settings: 4-OH-tamoxifen in medium 1 µM; 72 h
Description: as §1

[4] = tested on: BT-474; test: as above; settings: 72 h
Description: as §1

[5] = tested on: ZR-75-1; test: as above; settings: 72 h
Description: as §1

[6] = tested on: BT-474 Tam1; test: as above; settings: 4-OH-tamoxifen in medium 1 µM; 72 h
Description: as §1

[7] = tested on: BT-474 Tam2; test: as above; settings: 4-OH-tamoxifen in medium 1 µM; 72 h
Description: as §1

[8] = tested on: ZR-75-1 Tam1; test: as above; settings: 4-OH-tamoxifen in medium 1 µM; 72 h
Description: as §1

[9] = tested on: MCF-7; test: as above; settings: 72 h
Description: as §1

[10] = tested on: T-47D; test: as above; settings: 72 h
Description: as §1

[11] = tested on: T-47D Tam1; test: as above; settings: 4-OH-tamoxifen in medium 1 µM; 72 h
Description: as §1

[12] = tested on: MCF-7 Tam1; test: relative IC50 (midpoint of fitted logistic curve, plateau may be below 50% inhibition; CellTiter-Glo viability); higher = less potent; settings: 4-OH-tamoxifen in medium 1 µM; 72 h
Description: (§2)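 FIMM FO2B library drugs were plated at 5 concentrations spanning a 10,000-fold range in 384-well plates. Cells were incubated for 72 h at 37 °C and viability was read by CellTiter-Glo, normalised to DMSO (0% inhibition) and 100 µM benzethonium chloride (100% inhibition). IC50 values come from logistic dose-response fits (Breeze pipeline). Tamoxifen-resistant lines and the 'in 1µM tamoxifen' parental arms were tested in medium with 1 µM 4-OH-tamoxifen.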

[13] = tested on: BT-474; test: as above; settings: 72 h
Description: as §2

[14] = tested on: BT-474 Tam1; test: as above; settings: 4-OH-tamoxifen in medium 1 µM; 72 h
Description: as §2

[15] = tested on: BT-474 Tam2; test: as above; settings: 4-OH-tamoxifen in medium 1 µM; 72 h
Description: as §2

[16] = tested on: MCF-7; test: as above; settings: 72 h
Description: as §2

[17] = tested on: T-47D; test: as above; settings: 72 h
Description: as §2

[18] = tested on: T-47D Tam1; test: as above; settings: 4-OH-tamoxifen in medium 1 µM; 72 h
Description: as §2

[19] = tested on: ZR-75-1 Tam1; test: as above; settings: 4-OH-tamoxifen in medium 1 µM; 72 h
Description: as §2

[20] = tested on: ZR-75-1; test: as above; settings: 72 h
Description: as §2

[21] = tested on: ZR-75-1 Tam2; test: as above; settings: 4-OH-tamoxifen in medium 1 µM; 72 h
Description: as §2

| SMILES | drug sensitivity score [1] | drug sensitivity score [2] | drug sensitivity score [3] | drug sensitivity score ([4]; 4-OH-tamoxifen in medium 0 µM) | drug sensitivity score ([4]; 4-OH-tamoxifen in medium 1 µM) | drug sensitivity score ([5]; 4-OH-tamoxifen in medium 0 µM) | drug sensitivity score ([5]; 4-OH-tamoxifen in medium 1 µM) | drug sensitivity score [6] | drug sensitivity score [7] | drug sensitivity score [8] | drug sensitivity score ([9]; 4-OH-tamoxifen in medium 0 µM) | drug sensitivity score ([9]; 4-OH-tamoxifen in medium 1 µM) | drug sensitivity score ([10]; 4-OH-tamoxifen in medium 0 µM) | drug sensitivity score ([10]; 4-OH-tamoxifen in medium 1 µM) | drug sensitivity score [11] | relative IC50 [12] [µM] | relative IC50 ([13]; 4-OH-tamoxifen in medium 0 µM) [µM] | relative IC50 [14] [µM] | relative IC50 [15] [µM] | relative IC50 ([16]; 4-OH-tamoxifen in medium 1 µM) [µM] | relative IC50 ([17]; 4-OH-tamoxifen in medium 1 µM) [µM] | relative IC50 [18] [µM] | relative IC50 ([13]; 4-OH-tamoxifen in medium 1 µM) [µM] | relative IC50 [19] [µM] | relative IC50 ([17]; 4-OH-tamoxifen in medium 0 µM) [µM] | relative IC50 ([20]; 4-OH-tamoxifen in medium 0 µM) [µM] | relative IC50 ([16]; 4-OH-tamoxifen in medium 0 µM) [µM] | relative IC50 [21] [µM] | relative IC50 ([20]; 4-OH-tamoxifen in medium 1 µM) [µM] |
| --- | --- | --- | --- | --- | --- | --- | --- | --- | --- | --- | --- | --- | --- | --- | --- | --- | --- | --- | --- | --- | --- | --- | --- | --- | --- | --- | --- | --- | --- |
| O=c1[nH]c(=O)n([C@H]2C[C@H](O)[C@@H](CO)O2)cc1F [Floxuridine] | 1.26 | 4.86 | 0 | 1.78 | 1.44 | 6.61 | 0.31 | 0 | 0 | 0.801 | 0.48 | 0 | 1.05 | 0 | 5.88 | > 10 | 2.41 | > 10 | > 10 | > 10 | > 10 | 1.39 |  |  |  |  |  |  |  |
| Nc1ccn([C@@H]2O[C@H](CO)[C@@H](O)C2(F)F)c(=O)n1 [Gemcitabine] | 0.815 | 0.493 | 0 | 0 | 0 | 6.28 | 0.865 | 0 | 0 | 0 | 5.69 | 0.509 | 4.36 | 0 | 0 | > 1 | > 1 | > 1 | > 1 |  | > 1 | > 1 | > 1 | > 1 | 0.0604 |  |  |  |  |
| Cc1ccc(Nc2nccc(N(C)c3ccc4c(C)n(C)nc4c3)n2)cc1S(N)(=O)=O [Pazopanib] | 0.821 | 0.0921 | 0 | 0 | 0 | 0 | 0 | 0.0636 | 0 | 0 | 0 | 0.177 | 0.231 | 0 | 0 | > 10 | > 10 |  | > 10 |  | > 10 | > 10 | > 10 | > 10 |  | > 10 | > 10 |  |  |
| COc1cc2nccc(Oc3ccc(NC(=O)C4(C(=O)Nc5ccc(F)cc5)CC4)cc3)c2cc1OC [Cabozantinib (XL184)] | 0.0065 | 0 | 0 | 0 | 0.138 | 0 | 0 | 0.113 | 0 | 0.0383 | 0 | 0.282 | 0 | 0 | 0 | > 1 | > 1 |  | > 1 |  | > 1 | > 1 |  |  | > 1 | > 1 | > 1 | > 1 | > 1 |
| CN1CCc2c(c3ccccc3n2Cc2ccc(C(=O)NO)cc2)C1 [Tubastatin A] | 0 | 0.301 | 0 | 0 | 0.725 | 0.27 | 0.715 | 1.77 | 0.145 | 0.0626 | 0 | 0.884 | 0 | 0 | 0 | > 10 | > 10 | 3.12 |  |  | > 10 | > 10 |  |  | > 10 |  |  |  |  |
| C[C@]1(O)C[C@@H](c2nc(-c3ccc4ccc(-c5ccccc5)nc4c3)c3c(N)nccn32)C1 [Linsitinib (OSI-906)] | 1.19 | 0.681 | 3.94 | 0 | 0.462 | 0 | 1.21 | 0 | 0 | 0.0832 | 4.58 | 5.68 | 2.48 | 2.45 | 7.18 | 1.17 | > 10 | > 10 | > 10 | 1.62 | 1.87 | 1.82 |  |  |  | > 10 | 1.7 |  |  |
| N[C@@H](CSC(c1ccccc1)(c1ccccc1)c1ccccc1)C(=O)O [S-trityl-L-cysteine] | 0.0046 | 0.627 | 0 | 0 | 1.41 | 1.65 | 0 | 1.68 | 0 | 0 | 0 | 1.69 | 0.0068 | 0 | 0 | > 40 | 40 |  | > 40 |  | > 40 | > 40 |  | > 40 |  |  | > 40 |  | > 40 |
| COc1cc(F)c(F)c(Nc2ccc(I)cc2F)c1NS(=O)(=O)C1(C[C@H](O)CO)CC1 [Refametinib (RDEA119)] | 1.2 | 0 | 3.77 | 0 | 6.44 | 0.912 | 0 | 3.68 | 0.629 | 0 | 3.75 | 3.88 | 1.6 | 0.324 | 4.09 | 0.389 | > 10 | 0.571 |  | 1.08 |  | 0.335 | 0.7 |  |  |  | 1.41 |  | > 10 |
| Nc1nc(Cl)nc2c1ncn2[C@@H]1O[C@H](CO)[C@@H](O)[C@@H]1F [Clofarabine] | 1.77 | 0.782 | 0 | 0 | 0 | 0.522 | 0.104 | 0 | 0 | 1.26 | 4.41 | 2.44 | 1.21 | 0.982 | 5.4 | > 10 | > 10 | > 10 | > 10 |  |  | 0.616 | > 10 |  | 4.1 |  | 0.49 |  |  |
| NC(=O)c1ccc(I)c([N+](=O)[O-])c1 | 0.229 | 0 | 0 | 0 | 0 | 0 | 0 | 0 | 0 | 0 | 0 | 0 | 0 | 0 | 0 | > 10 | > 10 | > 10 | > 10 | > 10 | > 10 | > 10 | > 10 |  | > 10 | > 10 | > 10 | > 10 | > 10 |
| C[C@@H]1C[C@H]2[C@@H]3CCC4=CC(=O)C=C[C@]4(C)[C@@]3(F)[C@@H](O)C[C@]2(C)[C@@]1(O)C(=O)CO [Dexamethasone  (Decadron)] | 0 | 0.209 | 0 | 0 | 0 | 0 | 0 | 0 | 0 | 0 | 0 | 1.88 | 0 | 0 | 0 | > 10 | > 10 |  | > 10 |  | > 10 | > 10 | > 10 | > 10 | > 10 | > 10 | > 10 |  | > 10 |
| CN(C)CCN1C(=O)c2cccc3cc(N)cc(c23)C1=O [Amonafide] | 0 | 0.594 | 0 | 0 | 0 | 1.49 | 0.169 | 0 | 0 | 0.0369 | 2.63 | 0.126 | 0.496 | 0 | 0 | > 10 | > 10 | > 10 | > 10 |  | > 10 | > 10 | > 10 |  |  | 3.51 | 3.26 |  |  |
| COC(=O)c1ccc2c(c1)NC(=O)/C2=C(\Nc1ccc(N(C)C(=O)CN2CCN(C)CC2)cc1)c1ccccc1 [Nintedanib (BIBF 1120)] | 0.209 | 0 | 0 | 0 | 3.83 | 0 | 0 | 7.37 | 0 | 0 | 0.34 | 0 | 0 | 0 | 0 | > 10 | > 10 | 0.155 | > 10 | > 10 | > 10 | > 10 |  |  | > 10 | > 10 |  | > 10 | > 10 |
| O=C1c2c(O)ccc(O)c2C(=O)c2c(NCCNCCO)ccc(NCCNCCO)c21 [Mitoxantrone] | 1.21 | 4.66 | 0 | 0 | 0 | 3.03 | 2.35 | 0 | 0 | 1.67 | 0 | 0 | 2.79 | 0 | 7.08 | > 1 | > 1 | > 1 | > 1 | > 1 | > 1 | 0.0368 | > 1 |  |  |  | > 1 |  |  |
| CO[C@@]12[C@H](COC(N)=O)C3=C(C(=O)C(C)=C(N)C3=O)N1C[C@@H]1N[C@@H]12 [Mitomycin C] | 0.0558 | 1.28 | 0 | 0 | 0 | 0.734 | 0.75 | 0 | 0 | 1.75 | 0.369 | 0.228 | 0.988 | 0 | 1.35 | > 10 | > 10 | > 10 | > 10 |  | > 10 | 3.57 | > 10 |  |  |  |  |  |  |
| CC(C)(C)c1cc(NC(=O)Nc2ccc(-c3cn4c(n3)sc3cc(OCCN5CCOCC5)ccc34)cc2)no1 [Quizartinib (AC220)] | 0.279 | 0 | 0 | 0 | 0 | 0 | 0 | 0 | 0 | 0 | 0 | 0 | 0 | 0 | 0 | > 1 | > 1 | > 1 | > 1 | > 1 | > 1 |  | > 1 | > 1 |  | > 1 | > 1 | > 1 | > 1 |
